Data: paper PMC7175181 (Biomolecules, 2020)
“Also recorded” adds a separate entry of the source. No end group written: not given here.

Columns and labels:
ACE [1] = molecular target: T1, ACE (Homo sapiens, UniProt P12821); experiment: In vitro ACE inhibition assay (ACE Kit-WST); assay type: biochemical; settings: for IC50: ACE Kit-WST, 1 h at 37 °C, absorbance 450 nm, non-linear regression, mean of three independent experiments (n = 3); for Comparison of IC50 (ACE inhibition): n = 3, one-way ANOVA and Sidak's multiple-comparisons test
T1 construct: purchased Dojindo Laboratories ACE Kit-WST
Description: The inhibition of ACE was measured using the ACE Kit-WST (Dojindo Laboratories, Mashiki-machi, Japan). Custom synthesized hemorphin peptides ([…], […], YPWTQRF, and YPWTRRF) were purchased from New England Peptide (Gardner, MA, USA). Indicator working solution and enzyme working solution were prepared according to the manufacturer’s instructions. 10 µL of each dose of hemorphin was added to the wells of a 96-well microplate. 20 µL and 40 µL of deionized water were added in blank 1 and blank 2 wells. 20 µL of the substrate buffer was added to each well, followed by 20 µL of enzyme working solution in all of the sample wells and blank 1. The plate was incubated for 1 h at 37 °C. After the incubation period, 200 µL of indicator working solution was added to each well and then incubated at room temperature for 5 min. After incubation, plate absorbance was measured at 450 nm using Glomax Discover Microplate Reader (Promega, Madison, WI, USA). The inhibition of ACE was calculated using the following equation: Inhibition rate (%) = (Ablank1 − Asample)/(Ablank1 − Ablank2) × 100.
From the obtained data, IC50 was calculated using Prism 7 (GraphPad, San Diego, CA, USA) from a non-linear regression plot of ACE inhibition (%) against peptide concentration (µM).
Nonlinear regression was used to generate dose–response curves in Prism 7 (GraphPad, San Diego, CA, USA). The observed data are presented as mean ± SEM (Standard Error of the Mean). One-way or two-way analysis of variance (ANOVA), as appropriate, were carried out and a comparison of means was performed by Sidak’s multiple-comparisons test to estimate the statistical significance between the different treatments.

[2] = cited from earlier work
Description: Angiotensin-I converting enzyme (ACE) is a zinc metallopeptidase that is found in many tissues and biological fluids and it is an important player in regulating RAAS and kallikrein-kinnin system (KKS). There are two main mechanisms by which ACE causes hypertension. Firstly, ACE cleaves two amino acids from the decapeptide angiotensin I to produce the octapeptide angiotensin II, which is a strong vasoconstrictor. Secondly, ACE is involved in the degradation of bradykinnin, a potent vasodilator [5, 6]. ACE is associated with hypertension and remains an important target for the discovery of an ...

[3] = ref [15],[16]; cited from earlier work
Description: Hemorphins are endogenous peptides that are produced from beta hemoglobin. Hemorphins of various lengths (4–10 amino acids) have been identified so far. These peptides are mainly produced in the plasma, brain, cerebrospinal fluid, and spinal cord. The decapeptide LVV-hemorphin-7 ([…]) is considered to be the longest form of hemorphin and is found abundantly in the mammalian nervous system. […] Numerous studies have reported various biological activities of hemor ...

ACE [4] = settings: ref [53]; cited from earlier work
ACE [5] = molecular target: T1, ACE; design: method as in 2 sources, one per row (each row's own in cited_ref): ref [54] = [54]; PMID 7945362; doi:10.1006/bbrc.1994.2447; 54. Zhao Q. Sannier F. Garreau I. Guillochon D. Piot J.M. Inhibition and inhibition kinetics of angiotensin converting enzyme activity by hemorphins, isolated from a peptic bovine hemoglobin hydrolysa ||| ref [24] = [24]; PMID 12182948; doi:10.1016/S0196-9781(02)00083-9; 24. Fruitier-Arnaudin I. Cohen M. Bordenave S. Sannier F. Piot J.M. Comparative effects of angiotensin IV and two hemorphins on angiotensin-converting enzyme activity Peptides 2002 23 1465 1470 10.101; settings: ref [54]; cited from earlier work
Description: An ACE inhibition assay was performed to evaluate the IC50 of these peptides to investigate this further.

T1 sequence (P12821 30-1306, species assumed): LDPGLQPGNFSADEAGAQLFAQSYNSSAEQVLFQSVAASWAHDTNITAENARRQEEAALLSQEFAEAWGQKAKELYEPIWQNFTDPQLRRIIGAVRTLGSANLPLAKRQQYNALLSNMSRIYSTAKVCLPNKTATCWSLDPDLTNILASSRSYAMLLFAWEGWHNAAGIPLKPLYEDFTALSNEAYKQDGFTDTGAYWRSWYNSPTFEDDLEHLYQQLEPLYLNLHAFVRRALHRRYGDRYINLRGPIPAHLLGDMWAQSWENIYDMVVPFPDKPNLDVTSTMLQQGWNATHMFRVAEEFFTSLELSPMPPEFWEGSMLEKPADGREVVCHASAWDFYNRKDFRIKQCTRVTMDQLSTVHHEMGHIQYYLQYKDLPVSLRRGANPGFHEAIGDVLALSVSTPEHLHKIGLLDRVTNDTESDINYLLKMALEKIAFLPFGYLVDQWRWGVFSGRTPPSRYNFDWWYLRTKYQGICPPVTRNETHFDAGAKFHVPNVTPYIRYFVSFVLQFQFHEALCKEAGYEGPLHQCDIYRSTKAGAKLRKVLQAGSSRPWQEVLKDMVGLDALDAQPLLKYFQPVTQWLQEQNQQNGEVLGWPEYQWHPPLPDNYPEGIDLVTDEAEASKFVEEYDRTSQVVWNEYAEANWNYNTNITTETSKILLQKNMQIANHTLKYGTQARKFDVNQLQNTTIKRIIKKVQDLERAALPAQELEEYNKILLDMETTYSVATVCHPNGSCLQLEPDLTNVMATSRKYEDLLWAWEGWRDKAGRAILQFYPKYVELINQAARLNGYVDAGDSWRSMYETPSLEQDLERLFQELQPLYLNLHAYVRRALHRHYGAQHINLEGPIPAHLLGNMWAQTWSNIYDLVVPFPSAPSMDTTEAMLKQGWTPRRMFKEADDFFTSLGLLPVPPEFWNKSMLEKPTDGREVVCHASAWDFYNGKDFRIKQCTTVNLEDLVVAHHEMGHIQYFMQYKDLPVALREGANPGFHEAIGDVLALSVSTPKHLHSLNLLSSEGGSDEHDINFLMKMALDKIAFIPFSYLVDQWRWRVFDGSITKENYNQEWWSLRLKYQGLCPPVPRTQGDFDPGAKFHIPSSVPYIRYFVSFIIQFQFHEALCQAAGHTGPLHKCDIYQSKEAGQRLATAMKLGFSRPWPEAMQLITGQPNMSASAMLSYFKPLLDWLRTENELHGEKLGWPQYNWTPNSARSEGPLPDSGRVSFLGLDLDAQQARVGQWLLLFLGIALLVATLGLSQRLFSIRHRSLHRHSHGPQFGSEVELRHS

Compound	IC50 (ACE [1])	Comparison of IC50 (ACE inhibition) (ACE [1])	other results
YPWTRRF [YPWTRRF]	9.31 µM	significantly lower IC50	Comparison of IC50 (ACE inhibition) (ACE [1]; listed as camel hemorphin-7): significantly lower than the non-camel hemorphin-7 (25.894 µM) (p < 0.001, n = 3)
YPWTQRF [YPWTQRF]	25.9 µM		
C[C@H](CS)C(=O)N1CCC[C@H]1C(=O)O [captopril]			Side effects [2]: cough, kidney problems, angioedema, and allergic reactions
CC(C)C[C@H](N)C(=O)N[C@H](C(=O)N[C@H](C(=O)N[C@@H](Cc1ccc(O)cc1)C(=O)N1CCC[C@H]1C(=O)N[C@@H](Cc1c[nH]c2ccccc12)C(=O)N[C@H](C(=O)N[C@@H](CCC(N)=O)C(=O)N[C@@H](CCCNC(=N)N)C(=O)N[C@@H](Cc1ccccc1)C(=O)O)[C@@H](C)O)C(C)C)C(C)C	12.6 µM	significantly lower than that of YPWTQRF (25.894 µM)	Stability compared to other hemorphins [3]: most stable
C[C@H](N[C@@H](CCc1ccccc1)C(=O)O)C(=O)N1CCC[C@H]1C(=O)O [enalaprilat]			Affinity for ACE compared to lisinopril (ACE [4]): lower affinity when compared to lisinopril
VVYPWTQRF			ACE inhibitory activity compared to other hemorphins (ACE [5]): the removal of the N-terminus leucine significantly decreased the ACE inhibition activity of VVYPWTQRF in comparison to LVVYPWTQRF
CC(C)C[C@H](N)C(=O)N[C@H](C(=O)N[C@H](C(=O)N[C@@H](Cc1ccc(O)cc1)C(=O)N1CCC[C@H]1C(=O)N[C@@H](Cc1c[nH]c2ccccc12)C(=O)N[C@H](C(=O)N[C@@H](CCCNC(=N)N)C(=O)N[C@@H](CCCNC(=N)N)C(=O)N[C@@H](Cc1ccccc1)C(=O)O)[C@@H](C)O)C(C)C)C(C)C	6.6 µM	lower than YPWTRRF (9.310 µM); also recorded: the difference between LVVYPWTRRF and YPWTRRF was not significant	Comparison of IC50 (ACE inhibition) (ACE [1]; listed as camel LVV-hemorphin-7): significantly less than non-camel LVV-hemorphin-7 (12.649 µM) (p < 0.05, n = 3)
